“Also recorded” adds a separate entry of the source.
Tests used:
[1] = tested on: luminal ZR75-1 tumor xenografts; assay: ZR75-1 xenograft in fat pad, early and late treatment; assay type: in vivo, NOD/SCID mice; settings: for growth of established ZR75-1 tumors: late treatment, trastuzumab 4 mg/kg IP twice a week, docetaxel 10 mg/kg IP once a week
Method: (§1) Five-week old NOD/SCID mice from breeding colony, University of Michigan, Harland and Jackson Laboratory were used throughout the experiments. All experiments involving live mice were conducted in accordance with standard operating procedures approved by University Committee on the Use and Care of Animals at the University of Michigan (ULAM). An estrogen pellet was subcutaneously implanted in each mouse with the fat pad injection of MCF7 or ZR75-1 cells. Mice were sacrificed when tumor reached 1-1.2 CM.
(§2) A xenograft model was used to simulate clinical disease in adjuvant (early treatment) and advanced (late treatment) setting. 5 mice per treatment group were used. For adjuvant setting, 50,000 cells of BT474, ZR75-1 and MCF7 were injected into fat pads and began treatment immediately after inoculation. To simulate advanced disease, 1 million cells of BT474, ZR75-1 and MCF7 were inoculated into fat pads and tumors allowed to reach a size of approximately 0.4 cm. Then, treatment described below was initiated and continued along with assessment of tumor growth for 6-week period. Animals were sacrificed right after completion of 6-week treatment and cancer stem cells were analyzed by Aldefluor assay as described previously.
(§3) NOD/SCID mice implanted with luciferase-labeled cells received 6-week of treatment in both advanced and adjuvant setting.
(§4) Fat pad tumor diameter was measured by caliper weekly. Tumor volumes were calculated using the formula: volume=width^2×length/2. Luciferase-labeled tumor growth was monitored at least every 2 weeks using in vivo imaging system (ISVS, Caliper Life Science). Mice were injected with luciferin (Caliper), anesthetized and imaged according to manufacturer's protocols. For photon flux counting, a charge-coupled device camera system (Xenogen) with a nose-cone isofluorane delivery system and heated stage for maintaining body temperature was used. Results were analyzed after 10 minutes of exposure using the Living Image software provided with the Xenogen imaging system.

[2] = tested on: SUM159-HER2+PTEN- xenografts; assay: SUM159-HER2+PTEN- trastuzumab-resistant xenografts; settings: for serum IL6 or IL8 levels: human specific ELISA; for percent of Aldefluor-positive cells in tumors: mouse, in vivo; for body weight: tumor-bearing mice, docetaxel 10 mg/kg once a week; for tumor growth: 8 weeks, perifosine 20 mg/kg twice a week, anti-IL6R 10 mg/kg once a week; for serum human IL6 and IL8 in control and docetaxel-treated mice higher than in treated mice: ELISA
[3] = tested on: HER2 amplified BT474 tumor xenografts; assay: BT474 xenograft in fat pad, early and late treatment; assay type: in vivo, NOD/SCID mice; settings: for growth of established BT474 tumors: late treatment, trastuzumab 4 mg/kg IP twice a week, docetaxel 10 mg/kg IP once a week
Method: as §1, §2, §3, §4

Sum159 cells = assay: CD44/CD24 flow cytometry of Sum159 cells; assay type: cell-based, human; settings: 5 days
Method: (§5) To measure ALDH activity, the Aldefluor assay was carried out according to manufacturer's guidelines (StemCell Technologies, Inc., Durham, N.C.). Indicated cells were incubated with fluorophore-conjugated CD44 or CD24 antibodies alone or in combination on ice for 30 min, washed with Hank's balanced salt solution (HBSS), and resuspended in DAPI containing HBSS buffer for flow cytometry analyses.
However, there was approximately a 2-fold increase in IL6 secretion when cells were treated for 3 weeks or longer (SEE FIG. 14A). […] The effects of trastuzumab-mediated IL6 production on CSCs were also tested. […] In contrast, downregulation of PTEN in these cells generated a population that contained approximately 10% CD44^+/CD24^− cells (FIG. 14B). […] To determine whether induction of the CSC phenotype was dependent on IL6 production, the effect of addition of IL6 receptor antibody on induction of the CSC phenotype was assessed. […] The ability of the anti-IL6R antibody to affect the CD44^+/CD24^− population in Sum159 cells, which lack the expression of the luminal CD24 marker, was examined. […] This discrepancy may be explained by the existence of different stem cell populations in different breast cancer subtypes.

[4] = tested on: trastuzumab-sensitive BT474-DsRed xenografts; assay: BT474-DsRed xenografts; assay type: in vivo, NOD/SCID mice; settings: 7-week period, compared to saline
parental BT474 cells = assay: co-culture of parental BT474 cells with BT474-PTEN-LTT cells; assay type: cell-based, human
Excerpt: (§6) The green fluorescent protein (GFP) label in the parental (PTEN wild-type) cells allowed separation by flow cytometry of cell populations following co-culture. Co-culture of parental BT474-GFP cells with BT474-PTEN^−LTT cells increased the percentage of CD44^+/CD24^− CSCs from 0.1% to 60% in parental cells (SEE FIG. 15A). Single GFP-expressing parental BT474 cells were sorted after 3 weeks of co-culture with BT474-PTEN^−LTT and generated multiple colonies. […] To examine the direct role of IL6 in these processes, parental BT474 or SKBR cells were stimulated with recombinant IL6 or conditioned medium (CM) from BT474-PTEN^−LTT cells in the presence or absence of anti-IL6R antibody.

IL6, IL8, and CCL5 = assay: cytokine secretion of Sum159-HER2+PTEN- cells, ELISA; assay type: cell-based, human; settings: for reduced the levels of these cytokines / secretion of all three cytokines (IL6, IL8, CCL5): Sum159-HER2+PTEN- cells, 1 mM Stat3 Inhibitor VII; for reduced the levels of these cytokines: 5 mM perfosine; for secretion of all three cytokines (IL6, IL8, CCL5): 5 mM Bay11-7082, 5 mM perfosine
Method: The NF-kB transcription factor is involved in the transcription of a number of cytokine genes including IL6, IL8, and CCL5 (Yu et al., 2010; herein incorporated by reference in its entirety). Furthermore, IL6-activated NF-kB signaling is mediated by Stat3 and Akt signaling pathways (Iliopoulos et al., 2009; herein incorporated by reference in its entirety). […] The effect of recombinant cytokines or cytokine-blocking antibodies on cytokine production was determined.

[5] = tested on: parental BT474 or SKBR cells; assay: stimulation with recombinant IL6 or conditioned medium, mesenchymal phenotype and CD44; assay type: cell-based, human; settings: 5 days
Excerpt: as §6

[6] = tested on: breast CSCs (tumor-initiating cells); assay: reimplantation assay of residual tumor cells into secondary mice; assay type: in vivo; settings: residual tumors from treated mice
Excerpt: One of the hallmarks of CSC model is their ability to initiate tumors in secondary reimplantation assays (Clarke et al., 2006; herein incorporated by reference in its entirety).

[7] = tested on: trastuzumab-resistant BT474-PTEN- xenografts; assay: BT474-PTEN- xenografts; assay type: in vivo, NOD/SCID mice; settings: for secondary tumors and distant metastasis after excision of primary tumors: excised after 8 weeks of treatment, luciferase imaging
Excerpt: Treatments for all early settings were 8 weeks long. […] Drug doses were as described in early setting.
To determine the effects of these treatments on the development of metastasis, we excised primary BT474-PTEN^− tumors after 8 weeks of treatment and assessed subsequent development of local and distant metastasis by luciferase imaging (FIG. 7D).

BT474 cells [8] = assay: tumorspheres in suspension cultures of BT474 cells; assay type: cell-based, human
Method: Single cells were plated on ultra-low attachment plates at a density of 1×10^5/ml and grown for 7 days in a mammocult medium (Stem Cell Technologies). After the treatment of primary spheres, they were dissociated into single-cell suspension and plated at a density of 5×10^3-1×10^4/ml for the subsequent passages. Secondary spheres were counted after 5-7 days in culture.

BT474 cells [9] = assay: cell growth / viable cells of BT474 cells; assay type: cell-based, human; settings: parental BT474 cells
[10] = tested on: BT474-DsRed and BT474-PTEN- cells; assay: CD44+/CD24- flow cytometry of BT474 cells; assay type: cell-based, human
Method: as §5
To determine whether induction of the CSC phenotype was dependent on IL6 production, the effect of addition of IL6 receptor antibody on induction of the CSC phenotype was assessed. […] The ability of the anti-IL6R antibody to affect the CD44^+/CD24^− population in Sum159 cells, which lack the expression of the luminal CD24 marker, was examined.

[11] = tested on: HER2 expression in MCF7 cells; assay: co-culture of MCF7 cells with human osteocytes, HER2 expression by flow cytometry; assay type: cell-based; settings: MCF7 co-cultured with human osteocytes
Method: Preparation of cells for FACS analysis and sorting was described as followings. Cells were collected and rinsed twice in 1×PBS containing 2% FBS and a fraction of cells were added with human immunoglobulin to identify non-specific binding and use these cells as a gate for negative control. Cells were incubated with appropriate antibody dilution as manufacture's guidelines. The antibody included anti-HER2/neu APC (Biosciences, Cat#340554), anti-HER2/neu PE (Biosciences, Cat#340552).
To simulate the bone microenvironment in vitro, co-culture experiments were performed utilizing MCF7, DsRed labeled with osteocytes generated from human bone mesenchymal stem cells. […] A number of biological effects of the bone microenvironment and mediated by RANK-ligand.

## CC(=O)O[C@@]12CO[C@@H]1C[C@H](O)[C@@]1(C)C(=O)[C@H](O)C3=C(C)[C@@H](OC(=O)[C@H](O)[C@@H](NC(=O)OC(C)(C)C)c4ccccc4)C[C@@](O)([C@@H](OC(=O)c4ccccc4)[C@H]21)C3(C)C [docetaxel]
[1]; early (adjuvant) setting
  tumor growth / formation, ZR75-1: suppressed tumor formation
[1]
  growth of established ZR75-1 tumors: reduced tumor growth
[1]; listed as Docetaxel
  growth of established ZR75-1 tumors: highest efficacy to shrink tumors
[2]
  serum IL6 or IL8 levels: no significant effect
  percent of Aldefluor-positive cells in tumors: no significant effect; also recorded: no reduction
  body weight: lost body weight
[3]; early (adjuvant) setting
  tumor growth / formation, BT474: suppressed tumor formation
[3]
  growth of established BT474 tumors: reduced tumor growth
[3]; listed as Docetaxel
  growth of established BT474 tumors: highest efficacy to shrink tumors

## Tocilizumab [anti-IL6R antibody]
Sum159 cells
  cell growth: substantial growth arrest
  generation of CD24+ cells: 11%
[4]
  growth of BT474-DsRed xenografts: little effect
Parental BT474 cells; antibody added at the time of co-culture
  induction of the CD44+/CD24- phenotype: inhibited
Parental BT474 cells; late treatment
  CD44+/CD24- phenotype in parental cells: no effect; also recorded: resistant
IL6, IL8, and CCL5; HER2+PTEN- cells with recombinant IL6
  IL6-increased production of all three cytokines: completely inhibited
IL6, IL8, and CCL5
  reduced the levels of these cytokines: more than 50%
[5]
  IL6- or CM-induced mesenchymal phenotype and CD44 expression: able to reverse
[2]
  tumor growth: significantly inhibited tumor growth
  serum human IL6 and IL8 in control and docetaxel-treated mice higher than in treated mice: 2 fold
  serum IL6 or IL8 levels: significantly reduced
  percent of Aldefluor-positive cells in tumors: significantly reduced; also recorded: substantial reduction
[6]
  frequency of CSCs reduced: more than 50%
  frequency of breast CSCs: significantly lower
[7]; early treatment
  growth of BT474-PTEN- xenografts: completely blocked tumor growth
[7]; established tumors (late treatment)
  tumor growth as assessed by tumor weight at sacrifice: completely blocked tumor growth
[7]
  secondary tumors and distant metastasis after excision of primary tumors: no distant metastasis detected
[7]; listed as Anti-IL6R antibody
  secondary tumors and distant metastasis after excision of primary tumors: completely inhibited
[7]; human specific ELISA
  serum IL6 levels: lowest levels
BT474 cells [8]
  number of tumorspheres induced by CM: reduced
BT474 cells [9]
  CM- or IL6-conferred resistance to trastuzumab: blocked; also recorded: reversed
[10]
  CD44+/CD24- CSC population: reduced
  increase in CD44+/CD24- population induced by trastuzumab: completely blocked

## CCCCCCCCCCCCCCCCCCOP(=O)([O-])OC1CC[N+](C)(C)CC1 [perifosine]
IL6, IL8, and CCL5
  secretion of all three cytokines (IL6, IL8, CCL5): only partially inhibited
  reduced the levels of these cytokines: 50%
[2]
  tumor growth: significantly inhibited tumor growth
  serum human IL6 and IL8 in control and docetaxel-treated mice higher than in treated mice: 2 fold
  serum IL6 or IL8 levels: significantly reduced
  percent of Aldefluor-positive cells in tumors: significantly reduced; also recorded: substantial reduction
  body weight: less body weight loss

## Stat3 Inhibitor VII
IL6, IL8, and CCL5
  secretion of all three cytokines (IL6, IL8, CCL5): only partially inhibited
  reduced the levels of these cytokines: 50%

## denosumab
[11]
  HER2 induction by osteocyte co-cultures: partially blocked
[11]; listed as Denosumab
  HER2 induction by osteocyte co-cultures: able to suppress

## Cc1ccc(S(=O)(=O)/C=C/C#N)cc1 [Bay11-7082]
IL6, IL8, and CCL5
  secretion of all three cytokines (IL6, IL8, CCL5): completely inhibited
IL6, IL8, and CCL5; listed as Bay11
  secretion of all three cytokines (IL6, IL8, CCL5): almost completely blocked; also recorded: completely suppressed

Reference: US9327023B2, “HER2 targeting agent treatment in non-HER2-amplified cancers having HER2 expressing cancer stem cells” (The Regents of the University of Michigan, priority 2011, dated 2016)
